Test results reported in patent US9452225B2, “GLP-1 prodrugs” (Novo Nordisk A/S, priority 2012, dated 2016).
Read-outs that look alike come from different tables or passages of the source. Numbered stars: 1 amine (or outer) side, 2 acyl side, 3 side chain; on linkers, the order of the positions; unused ones are H or OH. Square brackets hold non-standard residues; d marks the D form. Side chains are listed from the residue outwards. Peptide text beside a SMILES is read from it. * marks the point of attachment. Decanoyl(10-(4-HOOC-PhO)) = O=C(O)c1ccc(OCCCCCCCCCC(=O)*)cc1; Lac(3-(imidazol-4-yl)) = O=C(O)[C@@H](O)Cc1c[nH]cn1; C18 diacid = O=C(O)CCCCCCCCCCCCCCCCC(=O)*; γGlu = O=C(O)[C@H](CCC(=O)[*:2])N[*:1]; NMeI = CC[C@H](C)[C@H](NC)C(=O)O; AEEA = NCCOCCOCC(=O)O; Aib = CC(C)(N)C(=O)O; Glycolyl = O=C(CO)*

Test: Prodrug half-life in vitro, buffer method
Format: physicochemical
Description: The purpose of this example is to test the in vitro half-lives (T½) of the GLP-1 prodrugs of the invention, in comparison to conceptually different prodrugs. In what follows two in vitro methods are described, viz. a method conducted in buffer, and a method conducted in plasma.
Buffer: 25 mM Phosphate (Ionic strength: 154 mM, pH 7.4 at 37° C.)
NaH2PO4.2H2O (1.95 g, 12.5 mmol) and NaCl (2.61 g, 44.7 mmol) were dissolved in millipore water (approximately 450 mL) and adjusted to pH=7.44 at approximately 20° C. with concentrated NaOH and 1 M NaOH. Water was added to 500.00 mL.
The compound to be tested was dissolved in buffer to a concentration of 1.0 mg/mL and incubated at 37° C. Samples were taken at adequate intervals and the % parent drug compared to prodrug formed as function of time was evaluated by the UPLC method as referred to in Table 1 by comparing the areas under the curves for the two corresponding peaks. These UPLC methods are described in the general experimental section above (UPLC_A, and UPLC_B).
The half life of the prodrug (T½) was calculated from the slope of a linear fit to the curve of ln(% prodrug (Y)) as a function of time (t), as follows: Y=÷αt+k Math. 1 T½=ln(2)/α Math. 2 Plasma Method Buffer: 200 mM Phosphate, pH 7.4 at 37° C.
The resulting half-lives are set out in Table 1 below. For comparison, the T½ in buffer of native GLP-1(7-37) (His7 variant of SEQ ID NO: 1) was 13 minutes (0.2 hours).

[1] = 25 mM phosphate buffer pH 7.4, 37° C., 1.0 mg/mL, UPLC_A, or UPLC_B for compounds marked *, read-out: T½ in buffer (converted)

Q: For `CC[C@H](C)[C@H](NC)C(=O)N[C@H](C(=O)O[C@@H](Cc1c[nH]cn1)C(=O)NC(C)(C)C(=O)N[C@@H](CCC(=O)O)C(=O)NCC(=O)N[C@H](C(=O)N[C@@H](Cc1ccccc1)C(=O)N[C@H](C(=O)N[C@@H](CO)C(=O)N[C@@H](CC(=O)O)C(=O)N[C@H](C(=O)N[C@@H](CO)C(=O)N[C@@H](CO)C(=O)N[C@@H](Cc1ccc(O)cc1)C(=O)N[C@@H](CC(C)C)C(=O)N[C@@H](CCC(=O)O)C(=O)N[C@@H](CCC(=O)O)C(=O)N[C@@H](CCC(N)=O)C(=O)N[C@@H](C)C(=O)N[C@@H](C)C(=O)N[C@@H](CCCNC(=N)N)C(=O)N[C@@H](CCCCNC(=O)COCCOCCNC(=O)COCCOCCNC(=O)CC[C@H](NC(=O)CCCCCCCCCCCCCCCCC(=O)O)C(=O)O)C(=O)N[C@@H](Cc1ccccc1)C(=O)N[C@H](C(=O)N[C@@H](C)C(=O)N[C@@H](Cc1c[nH]c2ccccc12)C(=O)N[C@@H](CC(C)C)C(=O)N[C@H](C(=O)N[C@@H](CCCNC(=N)N)C(=O)NCC(=O)N[C@@H](CCCNC(=N)N)C(=O)NCC(=O)O)C(C)C)[C@@H](C)CC)C(C)C)[C@@H](C)O)[C@@H](C)O)C(C)C` [Example 6] (H-[NMeI]V[Lac(3-(imidazol-4-yl))][Aib]EGTFTSDVSSYLEEQAARK([AEEA-AEEA-γGlu-C18 diacid])FIAWLVRGRG-OH), which half-life at 1 mg/mL (buffer, pH 7.4) is on record?
A: 45.6 h

Q: With `CC[C@H](C)[C@H](NC(=O)[C@H](Cc1ccccc1)NC(=O)[C@H](CCC(=O)O)NC(=O)[C@H](CCCNC(=N)N)NC(=O)[C@@H](NC(=O)[C@H](C)NC(=O)[C@H](CCC(N)=O)NC(=O)[C@H](CCC(=O)O)NC(=O)[C@H](CCC(=O)O)NC(=O)[C@H](CC(C)C)NC(=O)[C@H](Cc1ccc(O)cc1)NC(=O)[C@H](CCCCNC(=O)COCCOCCNC(=O)COCCOCCNC(=O)CC[C@H](NC(=O)CCCCCCCCCOc1ccc(C(=O)O)cc1)C(=O)O)NC(=O)[C@H](CO)NC(=O)[C@@H](NC(=O)[C@H](CC(=O)O)NC(=O)[C@H](CO)NC(=O)[C@@H](NC(=O)[C@H](Cc1ccccc1)NC(=O)[C@@H](NC(=O)CNC(=O)[C@H](CCC(=O)O)NC(=O)[C@H](C)NC(=O)[C@H](Cc1c[nH]cn1)OC(=O)[C@@H](NC(=O)CO)C(C)C)[C@@H](C)O)[C@@H](C)O)C(C)C)C(C)C)C(=O)N[C@@H](C)C(=O)N[C@@H](CCCCNC(=O)COCCOCCNC(=O)COCCOCCNC(=O)CC[C@H](NC(=O)CCCCCCCCCOc1ccc(C(=O)O)cc1)C(=O)O)C(=O)N[C@@H](CC(C)C)C(=O)N[C@H](C(=O)N[C@@H](CCCNC(=N)N)C(=O)NCC(=O)N[C@@H](CCCNC(=N)N)C(=O)NCC(=O)O)C(C)C` [Example 1b] (Glycolyl-V[Lac(3-(imidazol-4-yl))]AEGTFTSDVSK([AEEA-AEEA-γGlu-Decanoyl(10-(4-HOOC-PhO))])YLEEQAVREFIAK([AEEA-AEEA-γGlu-Decanoyl(10-(4-HOOC-PhO))])LVRGRG-OH) as the compound, how does the half-life at 1 mg/mL [1] read?
A: 0.65 h

Q: With `CC[C@H](C)[C@H](NC(=O)[C@H](Cc1ccccc1)NC(=O)[C@H](CCC(=O)O)NC(=O)[C@H](CCCNC(=N)N)NC(=O)[C@@H](NC(=O)[C@H](C)NC(=O)[C@H](CCC(N)=O)NC(=O)[C@H](CCC(=O)O)NC(=O)[C@H](CCC(=O)O)NC(=O)[C@H](CC(C)C)NC(=O)[C@H](Cc1ccc(O)cc1)NC(=O)[C@H](CCCCNC(=O)COCCOCCNC(=O)COCCOCCNC(=O)CC[C@H](NC(=O)CCCCCCCCCOc1ccc(C(=O)O)cc1)C(=O)O)NC(=O)[C@H](CO)NC(=O)[C@@H](NC(=O)[C@H](CC(=O)O)NC(=O)[C@H](CO)NC(=O)[C@@H](NC(=O)[C@H](Cc1ccccc1)NC(=O)[C@@H](NC(=O)CNC(=O)[C@H](CCC(=O)O)NC(=O)[C@H](C)NC(=O)[C@H](Cc1c[nH]cn1)OC(=O)[C@@H](NC(=O)CN)C(C)C)[C@@H](C)O)[C@@H](C)O)C(C)C)C(C)C)C(=O)N[C@@H](C)C(=O)N[C@@H](CCCCNC(=O)COCCOCCNC(=O)COCCOCCNC(=O)CC[C@H](NC(=O)CCCCCCCCCOc1ccc(C(=O)O)cc1)C(=O)O)C(=O)N[C@@H](CC(C)C)C(=O)N[C@H](C(=O)N[C@@H](CCCNC(=N)N)C(=O)NCC(=O)N[C@@H](CCCNC(=N)N)C(=O)NCC(=O)O)C(C)C` [Example 1a] (H-GV[Lac(3-(imidazol-4-yl))]AEGTFTSDVSK([AEEA-AEEA-γGlu-Decanoyl(10-(4-HOOC-PhO))])YLEEQAVREFIAK([AEEA-AEEA-γGlu-Decanoyl(10-(4-HOOC-PhO))])LVRGRG-OH) as the compound, how does the half-life at 1 mg/mL [1] read?
A: 1.5 h

Q: Which half-life at 1 mg/mL (buffer, pH 7.4) does the source give for `CC[C@H](C)[C@H](N)C(=O)N[C@H](C(=O)O[C@@H](Cc1c[nH]cn1)C(=O)NC(C)(C)C(=O)N[C@@H](CCC(=O)O)C(=O)NCC(=O)N[C@H](C(=O)N[C@@H](Cc1ccccc1)C(=O)N[C@H](C(=O)N[C@@H](CO)C(=O)N[C@@H](CC(=O)O)C(=O)N[C@H](C(=O)N[C@@H](CO)C(=O)N[C@@H](CO)C(=O)N[C@@H](Cc1ccc(O)cc1)C(=O)N[C@@H](CC(C)C)C(=O)N[C@@H](CCC(=O)O)C(=O)N[C@@H](CCC(=O)O)C(=O)N[C@@H](CCC(N)=O)C(=O)N[C@@H](C)C(=O)N[C@@H](C)C(=O)N[C@@H](CCCNC(=N)N)C(=O)N[C@@H](CCCCNC(=O)COCCOCCNC(=O)COCCOCCNC(=O)CC[C@H](NC(=O)CCCCCCCCCCCCCCCCC(=O)O)C(=O)O)C(=O)N[C@@H](Cc1ccccc1)C(=O)N[C@H](C(=O)N[C@@H](C)C(=O)N[C@@H](Cc1c[nH]c2ccccc12)C(=O)N[C@@H](CC(C)C)C(=O)N[C@H](C(=O)N[C@@H](CCCNC(=N)N)C(=O)NCC(=O)N[C@@H](CCCNC(=N)N)C(=O)NCC(=O)O)C(C)C)[C@@H](C)CC)C(C)C)[C@@H](C)O)[C@@H](C)O)C(C)C` [Example 6a] (H-IV[Lac(3-(imidazol-4-yl))][Aib]EGTFTSDVSSYLEEQAARK([AEEA-AEEA-γGlu-C18 diacid])FIAWLVRGRG-OH) here?
A: 11 h
